Structures are written as SMILES. Values after ≈ are worked out from the molar mass of the structure shown.

Results on seven compounds are retold here after ChEMBL document CHEMBL3603800, “Novel methyl substituted 1-(5,6-dihydro-[1,2,4]triazolo[4,3-a]pyrazin-7(8H)-yl)methanones are P2X7 antagonists” (Bioorg Med Chem Lett, 2015).

Data set [1] concerns the target Voltage-gated inwardly rectifying potassium channel KCNH2 (Homo sapiens, UniProt Q12809). The data set can be described thus: Displacement of [3H]-astemizole from human ERG channel expressed in HEK293 cells by radioligand competition binding assay. Format: cell-based.
A short description of data set [2]: Apparent permeability from apical to basolateral side in human Caco2 cells. The class given is ADME, cell-based. The conditions noted are these: Caco-2.
The nature of data set [3]: Apparent permeability from basolateral to apical side in human Caco2 cells. The class given is ADME, cell-based. The conditions noted are these: Caco-2.
Data set [4] in a line: Protein binding in human plasma. Format: ADME, cell-free. The conditions noted are these: read-out: PPB (converted).
Data set [5] is described as follows: Protein binding in rat plasma. The class given is ADME, cell-free. The conditions noted are these: read-out: PPB (converted).
Data set [6] can be described thus: Solubility in pH 7 solution. The class given is physicochemical.
Data set [7] can be described thus: Protein binding in rat brain. The class given is ADME, tissue-based. The conditions noted are these: read-out: PB (converted).
For data set [8], the system named is Rattus norvegicus. The data set can be described thus: Ex-vivo P2X7 receptor occupancy in Sprague-Dawley rat brain assessed as inhibition of [3H]A804598 binding at 30 mg/kg, po after 0.5 hrs by autoradiographic analysis. The class given is functional.
The nature of data set [9]: Drug level in plasma of Sprague-Dawley rat at 30 mg/kg, po after 0.5 hrs. Format: ADME, organism-based.
Data set [10] can be described thus: Drug level in brain of Sprague-Dawley rat at 30 mg/kg, po after 0.5 hrs. The conditions noted are these: read-out: Drug uptake. Format: ADME, organism-based.
In data set [11] the test system is Rattus norvegicus. Nature of the data set: Ex-vivo P2X7 receptor occupancy in Sprague-Dawley rat brain assessed as inhibition of [3H]A804598 binding at 30 mg/kg, po after 2 hrs by autoradiographic analysis. Format: functional.
Data set [12] is described as follows: Drug level in plasma of Sprague-Dawley rat at 30 mg/kg, po after 2 hrs. The class given is ADME, organism-based.
Data set [13] can be described thus: Drug level in brain of Sprague-Dawley rat at 30 mg/kg, po after 2 hrs. Format: ADME, organism-based. The conditions noted are these: read-out: Drug uptake.
The test system of data set [14] is Rattus norvegicus. Nature of the data set: Ex-vivo P2X7 receptor occupancy in Sprague-Dawley rat brain assessed as inhibition of [3H]A804598 binding at 10 mg/kg, po after 2 hrs by autoradiographic analysis. The class given is functional.
Data set [15] can be described thus: Drug level in plasma of Sprague-Dawley rat at 10 mg/kg, after 0.5 hrs.
Data set [16] in a line: Drug level in plasma of Sprague-Dawley rat at 10 mg/kg, sc after 2 hrs.
The nature of data set [17]: Drug level in brain of Sprague-Dawley rat at 10 mg/kg, sc after 0.5 hrs. The conditions noted are these: read-out: Drug uptake.
Data set [18] deals with Rattus norvegicus. Nature of the data set: Ex-vivo P2X7 receptor occupancy in Sprague-Dawley rat brain assessed as inhibition of [3H]A804598 binding at 10 mg/kg, sc after 0.5 hrs by autoradiographic analysis.

Voltage-gated inwardly rectifying potassium channel KCNH2, sequence (Q12809 whole entry): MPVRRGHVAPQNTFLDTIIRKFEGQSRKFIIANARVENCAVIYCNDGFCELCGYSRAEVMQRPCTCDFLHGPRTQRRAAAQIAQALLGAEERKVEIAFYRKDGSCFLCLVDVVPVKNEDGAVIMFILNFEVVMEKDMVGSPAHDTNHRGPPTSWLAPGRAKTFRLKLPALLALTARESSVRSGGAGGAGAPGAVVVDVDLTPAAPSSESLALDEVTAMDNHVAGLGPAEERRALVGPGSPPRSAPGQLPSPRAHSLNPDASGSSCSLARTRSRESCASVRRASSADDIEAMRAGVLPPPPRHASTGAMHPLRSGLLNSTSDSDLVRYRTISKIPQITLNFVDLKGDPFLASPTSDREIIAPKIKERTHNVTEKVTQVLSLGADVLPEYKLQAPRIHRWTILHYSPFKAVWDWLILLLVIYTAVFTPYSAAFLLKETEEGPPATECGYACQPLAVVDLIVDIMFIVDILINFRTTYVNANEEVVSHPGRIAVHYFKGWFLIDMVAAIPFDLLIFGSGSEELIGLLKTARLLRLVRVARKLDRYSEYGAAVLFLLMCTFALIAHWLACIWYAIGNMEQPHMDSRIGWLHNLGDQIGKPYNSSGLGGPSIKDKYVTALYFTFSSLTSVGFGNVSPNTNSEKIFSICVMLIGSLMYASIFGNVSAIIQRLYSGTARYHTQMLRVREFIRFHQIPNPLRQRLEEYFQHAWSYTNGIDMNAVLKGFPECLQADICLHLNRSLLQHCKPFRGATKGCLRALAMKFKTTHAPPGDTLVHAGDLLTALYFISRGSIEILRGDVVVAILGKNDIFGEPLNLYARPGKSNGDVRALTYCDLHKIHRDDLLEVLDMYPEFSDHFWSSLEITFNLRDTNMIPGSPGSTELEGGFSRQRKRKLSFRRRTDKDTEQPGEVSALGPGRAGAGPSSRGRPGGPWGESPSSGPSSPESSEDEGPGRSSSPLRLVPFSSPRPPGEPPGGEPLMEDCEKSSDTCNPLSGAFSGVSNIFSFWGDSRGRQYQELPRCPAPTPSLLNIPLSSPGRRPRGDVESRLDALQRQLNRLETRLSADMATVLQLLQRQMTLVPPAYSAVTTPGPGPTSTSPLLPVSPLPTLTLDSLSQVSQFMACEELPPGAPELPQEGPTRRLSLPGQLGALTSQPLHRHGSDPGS

`C[C@@H]1c2nnc(-c3ccccn3)n2CCN1C(=O)c1cccc(Cl)c1Cl` displayed an IC50 in data set [1] of over 10 µM. Besides, the Papp A→B in data set [2] came to 73.4 ×10⁻⁶ cm/s. The Papp B→A in [3] was 52.1 ×10⁻⁶ cm/s. Further, the fraction unbound in data set [4] was 0.175; in data set [5] it was 0.069; in data set [7], 0.11. This compound had a solubility in data set [6] of over 400 µM. Besides, the values for the Occ in data set [8] and in [11] were 68% and 56%, respectively. In addition, the figures for the concentration at 0.5 h in data set [9] and in data set [10] were 2520 ng/mL and 5510 ng/mL, respectively. Besides, the concentration at 2 h in data set [12] was determined as 942 ng/mL; in data set [13], 2500 ng/mL.
Consider `C[C@H]1Cn2c(nnc2-c2ccc(F)cc2)CN1C(=O)c1cccc(Cl)c1Cl`, for which the apparent permeability from apical to basolateral (Papp A→B) in data set [2] came out at 43.3 ×10⁻⁶ cm/s. Also, in data set [3], the basolateral-to-apical permeability (Papp B→A) came to 41.6 ×10⁻⁶ cm/s. The fraction unbound was 0.115 in data set [4], 0.078 in data set [5] and 0.09 in data set [7]. Further, the solubility in [6] worked out at 158 µM (≈ 64 µg/mL). The Occ in data set [8] worked out at 92%; in data set [11] it was 5%. The concentration at 0.5 h in data set [9] was 252 ng/mL; in data set [10] it was 1560 ng/mL. Also, the concentration at 2 h in data set [12] is 27 ng/mL; in data set [13], 142 ng/mL.
`C[C@H]1Cn2c(nnc2-c2ccc(F)cc2)CN1C(=O)c1cccc(C(F)(F)F)c1Cl`: the Papp A→B in data set [2] was 37.3 ×10⁻⁶ cm/s. Further, the Papp B→A in data set [3] is 53.2 ×10⁻⁶ cm/s. The fraction unbound in data set [4] was 0.131; in [5] it was 0.078; in data set [7], 0.07. Moreover, the Occ in [8] was determined as 89%; in [11] it was 73%. Moreover, the figures for the concentration at 0.5 h in data set [9] and in data set [10] were 1460 ng/mL and 6740 ng/mL, respectively. Also, the concentration at 2 h in data set [12] turned out to be 2680 ng/mL; in [13], 12600 ng/mL.
For `C[C@H]1Cn2c(nnc2-c2cnccn2)CN1C(=O)c1cccc(C(F)(F)F)c1Cl`, the fraction unbound in [4] and in data set [5] was 0.302 in each case.
With `C[C@H]1Cn2c(nnc2-c2ccccn2)CN1C(=O)c1cccc(Cl)c1Cl`, the results for the fraction unbound in data set [4] and in data set [5] were 0.51 and 0.449, respectively.
As for `COc1ccnc(-c2nnc3n2C[C@H](C)N(C(=O)c2cccc(Cl)c2Cl)C3)c1`, in [1], the concentration for half-maximal inhibition (IC50) is over 10 µM. Further, the fraction unbound is 0.174 in data set [4] and 0.07 in data set [5]. Also, the concentration in solution in data set [6] (solubility) came to 260 µM (≈ 109 µg/mL). The Occ was found to be 71% in data set [14] and 78% in data set [18]. In addition, the concentration at 0.5 h in [15] came to 1080 ng/mL; in [17], 3880 ng/mL. For the same compound, the concentration at 2 h in data set [16] worked out at 374 ng/mL.
`C[C@H]1Cn2c(nnc2-c2cc(F)ccn2)CN1C(=O)c1cccc(Cl)c1Cl`: the fraction unbound was 0.254 in data set [4] and 0.09 in data set [5]. Further, the concentration in solution in [6] (solubility) came to 350 µM (≈ 142 µg/mL).
